From patent US20230382924A1, “MODULATORS OF CYSTIC FIBROSIS TRANSMEMBRANE CONDUCTANCE REGULATOR” (VERTEX PHARMACEUTICALS INCORPORATED, priority 2020, published 2023) come the findings set out here.

The structures appear in SMILES notation. Like-named read-outs stand apart in the source and are kept apart here.

The assay concerns the target CFTR (Homo sapiens, UniProt P13569). The experiment in a line: Membrane Potential Dye, Enteroid Assay A. It counts as cell-based. Conditions: for EC50: read-out: Ent. A EC50. The gist of the method:
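Signal is reported as % Activity relative to a triple CFTR modulator control (3 μM + 3 μM + 300 nM acute). Read-out: membrane potential fluorescence (20 μM methyl oxonol) monitored for 15 min after chloride-free stimulation. Dye loading took 25 min at room temperature in Bath 1 buffer containing CaCC blockers.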

Sequence of CFTR (P13569 with tags, fused parts or gaps DEL508-508): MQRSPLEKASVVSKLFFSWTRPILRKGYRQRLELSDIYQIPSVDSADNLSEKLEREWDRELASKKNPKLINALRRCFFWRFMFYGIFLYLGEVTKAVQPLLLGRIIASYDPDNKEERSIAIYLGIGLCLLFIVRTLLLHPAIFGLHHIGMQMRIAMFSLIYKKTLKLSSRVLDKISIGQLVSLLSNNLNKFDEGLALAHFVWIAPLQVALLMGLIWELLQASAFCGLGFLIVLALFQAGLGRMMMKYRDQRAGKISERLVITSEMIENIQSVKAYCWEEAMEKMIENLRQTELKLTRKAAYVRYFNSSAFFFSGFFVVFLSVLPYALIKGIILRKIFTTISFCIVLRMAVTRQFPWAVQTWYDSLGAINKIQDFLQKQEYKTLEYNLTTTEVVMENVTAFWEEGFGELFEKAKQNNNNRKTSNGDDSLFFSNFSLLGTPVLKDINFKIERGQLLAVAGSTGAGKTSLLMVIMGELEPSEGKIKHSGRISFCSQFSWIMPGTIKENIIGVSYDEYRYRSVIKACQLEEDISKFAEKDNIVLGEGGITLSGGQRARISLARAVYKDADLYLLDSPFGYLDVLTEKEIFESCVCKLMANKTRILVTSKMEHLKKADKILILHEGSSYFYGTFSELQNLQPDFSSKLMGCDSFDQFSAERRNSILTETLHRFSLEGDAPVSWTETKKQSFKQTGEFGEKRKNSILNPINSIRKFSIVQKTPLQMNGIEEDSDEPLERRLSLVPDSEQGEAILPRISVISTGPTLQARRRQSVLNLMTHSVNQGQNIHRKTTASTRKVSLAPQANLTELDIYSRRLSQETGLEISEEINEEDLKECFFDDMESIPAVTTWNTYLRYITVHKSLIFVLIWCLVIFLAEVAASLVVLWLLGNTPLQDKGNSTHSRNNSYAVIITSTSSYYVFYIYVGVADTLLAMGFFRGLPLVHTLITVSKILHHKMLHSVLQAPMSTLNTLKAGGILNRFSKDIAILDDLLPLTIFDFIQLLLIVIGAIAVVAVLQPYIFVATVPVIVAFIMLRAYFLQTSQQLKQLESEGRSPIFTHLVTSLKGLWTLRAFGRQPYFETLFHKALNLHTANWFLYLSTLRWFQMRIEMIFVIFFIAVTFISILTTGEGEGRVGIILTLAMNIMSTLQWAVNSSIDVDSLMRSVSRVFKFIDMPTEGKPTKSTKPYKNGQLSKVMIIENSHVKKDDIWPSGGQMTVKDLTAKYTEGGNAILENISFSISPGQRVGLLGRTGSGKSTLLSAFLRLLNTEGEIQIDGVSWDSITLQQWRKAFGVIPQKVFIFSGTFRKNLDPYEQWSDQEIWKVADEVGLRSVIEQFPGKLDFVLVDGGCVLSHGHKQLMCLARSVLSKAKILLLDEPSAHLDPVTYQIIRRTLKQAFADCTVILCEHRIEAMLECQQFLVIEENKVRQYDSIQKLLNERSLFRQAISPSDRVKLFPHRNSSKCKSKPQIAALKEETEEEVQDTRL

What is called EC50 is the concentration that produces a half-maximal response. In the case of `Cc1ccccc1[C@@H]1Oc2cc(-c3c(C)cccc3C)nc(n2)NS(=O)(=O)c2cccc(c2)C(=O)N[C@@H]1CC(C)C` [Compound 162], where the note is “Enteroid Assay A”, the EC50 is less than 1 µM.
Regarding `CC(C)C[C@@H]1COc2cc(C3=CCC(C)(C)CC3)nc(n2)NS(=O)(=O)c2cccc(c2)C(=O)N1` [Compound 323], under “Enteroid Assay A”, the “Ent. A Max Activity” value is reported as “++ (++ is 30-60%)” and the EC50 lay in the range of 1 to 3 µM.
Consider `Cc1cccc(C)c1-c1cc2nc(n1)NS(=O)(=O)c1cccc(c1)C(=O)N[C@@H](CC(C)C)CCO2` [Compound 224], for which, under “Table 9”, the “Ent. A Max Activity” value was “++ (++ is 30-60%)” and the EC50 lay within 1 to 3 µM.
As to `COc1cccc(-c2cccc(C(=O)N3CCC4(CC3)CNC(=O)c3cccc(c3)S(=O)(=O)Nc3nc(cc(-c5c(C)cccc5C)n3)OC4)c2)c1` [Compound 459], for the setting “Enteroid Assay A”, the “Ent. A Max Activity” value is recorded as “++ (++ is 30-60%)” and the EC50 was in the range of 1 to 3 µM.
Turning to `CCC[C@H]1NC(=O)c2cccc(c2)S(=O)(=O)Nc2nc(cc(-c3c(C)cccc3C)n2)O[C@@H]1c1ccc(C(C)(C)C)cc1` [Compound 227], for the setting “Table 9”, the “Ent. A Max Activity” value is given as “+++ (+++ is >60%)” and the EC50 was less than 1 µM.
The like results for `Cc1cccc(C)c1-c1cc2nc(n1)NS(=O)(=O)c1cccc(c1)C(=O)N[C@H]1CCN(C3CC4(CCCC4)C3)C[C@H]1O2` [Compound 384] were, in that order, “+++ (+++ is >60%)” and 1 to 3 µM.
Turning to `Cc1cccc(C)c1-c1cc2nc(n1)NS(=O)(=O)c1cccc(c1)C(=O)N[C@@H](CC(F)(F)F)CO2` (single isomer, unassigned) [Compound 94, 6-(2,6-dimethylphenyl)-11-(2,2,2-trifluoroethyl)-9-oxa-2λ^6-thia-3,5,12,19-tetraazatricyclo[12.3.1.14,8]nonadeca-1(17),4(19),5,7,14(18),15-hexaene-2,2,13-trione], for the setting “Table 9”, the “Ent. A Max Activity” value was “+++ (+++ is >60%)” and the EC50 is 1 to 3 µM.
Take `Cc1cccc(C)c1-c1cc2nc(n1)NS(=O)(=O)c1cccc(c1)C(=O)NCC(c1ccc(C3CC3)cc1)O2` (stereo not shown) [Compound 268]: under “Table 8”, the “Ent. A Max Activity” value is reported as “+++ (+++ is >60%)” and the EC50 was less than 1 µM.
With `CC(C)C[C@@H]1COc2cc(-c3ccccc3C(C)C)nc(n2)NS(=O)(=O)c2cccc(c2)C(=O)N1` [Compound 345], under “Enteroid Assay A”, the “Ent. A Max Activity” value was “+++ (+++ is >600%)” and the EC50 is less than 1 µM.
The corresponding values for `CC(C)C[C@@H]1COc2cc(-c3ccccc3)nc(n2)NS(=O)(=O)c2cccc(c2)C(=O)N1` [Compound 340] are “++ (++ is 30-60%)” and 3 to 30 µM.
As to `Cc1cccc(C)c1-c1cc2nc(n1)NS(=O)(=O)c1cccc(c1)C(=O)NCC(c1ccc(C3CCC3)cc1)O2` (single isomer, unassigned) [Compound 13, 10-(4-Cyclobutylphenyl)-6-(2,6-dimethylphenyl)-2,2-dioxo-9-oxa-2λ^6-thia-3,5,12,19-tetrazatricyclo[12.3.1.14,8]nonadeca-1(18),4(19),5,7,14,16-hexaen-13-one], under “Table 9”, the “Ent. A Max Activity” value is “+ (+ is <30%)” and the EC50 was less than 1 µM.
The like results for `Cc1cccc(C)c1-c1cc2nc(n1)NS(=O)(=O)c1cccc(c1)C(=O)NC[C@H](c1ccc(CCC(C)(C)C)cc1)O2` (stereo in doubt) [Compound 148] were, in that order, “++ (++ is 30-60%)” and less than 1 µM.
Take `CCC(C)(C)c1ccc(C2CNC(=O)c3cccc(c3)S(=O)(=O)Nc3nc(cc(-c4c(C)cccc4C)n3)O2)cc1` (stereo not shown) [Compound 153]: for the setting “Table 8”, the “Ent. A Max Activity” value was “+ (+ is <30%)” and the EC50 lay within 3 to 30 µM.
As for `Cc1cc(C2CNC(=O)c3cccc(c3)S(=O)(=O)Nc3nc(cc(-c4c(C)cccc4C)n3)O2)cc2c1OC(C)(C)C2` (stereo not shown) [Compound 119], the “Ent. A Max Activity” value (Table 8) was “+ (+ is <30%)”.
Regarding `Cc1cccc(C)c1-c1cc2nc(n1)NS(=O)(=O)c1cccc(c1)C(=O)N[C@H]1CCCC[C@H]1O2` [Compound 364], under “Enteroid Assay A”, the “Ent. A Max Activity” value is given as “++ (++ is 30-60%)” and the EC50 fell in the range of 3 to 30 µM.
Regarding `Cc1cccc(C)c1-c1cc2nc(n1)NS(=O)(=O)c1cccc(c1)C(=O)N[C@@H](C(CC(C)C)c1ccccc1)CO2` (stereo in doubt) [Compound 182], where the note is “Table 9”, the “Ent. A Max Activity” value is reported as “++ (++ is 30-60%)” and the concentration giving a half-maximal response (EC50) is less than 1 µM.
For the compound `CC(C)C[C@@H]1COc2cc(-c3ncccn3)nc(n2)NS(=O)(=O)c2cccc(c2)C(=O)N1` [Compound 178], the “Ent. A Max Activity” value (Table 9) is “+ (+ is <30%)”.
Take `CCC[C@H](NC(=O)OC(C)(C)C)C(=O)N1CCC2(CC1)CNC(=O)c1cccc(c1)S(=O)(=O)Nc1nc(cc(-c3c(C)cccc3C)n1)OC2` [Compound 469]: under “Enteroid Assay A”, the “Ent. A Max Activity” value is recorded as “++ (++ is 30-60%)” and the EC50 lay within 3 to 30 µM.
For `CC(C)C[C@@H]1COc2cc(N3C(C)CCC3C)nc(n2)NS(=O)(=O)c2cccc(c2)C(=O)N1` (stereo partly shown) [Compound 309], under “Table 8”, the “Ent. A Max Activity” value is reported as “+ (+ is <30%)”.
As to `Cc1cccc(C)c1-c1cc2nc(n1)NS(=O)(=O)c1cccc(c1)CN[C@H](CC1CCCCC1)CO2` [Compound 286], under “Table 8”, the “Ent. A Max Activity” value is recorded as “+ (+ is <30%)” and the EC50 was in the range of 3 to 30 µM.
As for `Cc1cccc(C)c1-c1cc2nc(n1)NS(=O)(=O)c1cccc(c1)C(=O)NC1c3ccccc3CC1O2` (stereo not shown) [Compound 489], under “Enteroid Assay A”, the “Ent. A Max Activity” value is given as “+++ (+++ is >600%)” and the EC50 was less than 1 µM.
Regarding `Cc1cccc(C)c1-c1cc2nc(n1)NS(=O)(=O)c1cccc(c1)C(=O)N[C@H](C)[C@H](c1ccc(C(C)(C)C)cc1)O2` [Compound 134], under “Table 8”, the “Ent. A Max Activity” value is on record as “+ (+ is <30%)” and the concentration giving a half-maximal response (EC50) is less than 1 µM.
Regarding `Cc1cccc(C)c1-c1cc2nc(n1)NS(=O)(=O)c1cccc(c1)C(=O)NC(C)(CC(C)C)CO2` (stereo not shown) [Compound 176], for the setting “Table 9”, the “Ent. A Max Activity” value is “+++ (+++ is >60%)” and the EC50 was less than 1 µM.
The like results for `Cc1cccc(C)c1-c1cc2nc(n1)NS(=O)(=O)c1cccc(c1)C(=O)N[C@@H]1CCN(C3CC4(CCCC4)C3)C[C@H]1O2` (stereo in doubt) [Compound 385] were, in that order, “+ (+ is <30%)” and 3 to 30 µM.
For the compound `Cc1cccc(C)c1-c1cc2nc(n1)NS(=O)(=O)c1cccc(c1)C(=O)N[C@@H]1CCCCC1O2` (stereo in doubt) [Compound 487], under “Enteroid Assay A”, the “Ent. A Max Activity” value is listed as “+++ (+++ is >600%)” and the EC50 was less than 1 µM.
As to `Cc1cccc(C)c1-c1cc2nc(n1)NS(=O)(=O)c1cccc(c1)C(=O)NCC(c1ccc(CC(C)(C)C)cc1)O2` (stereo not shown) [Compound 267], under “Table 8”, the “Ent. A Max Activity” value is on record as “+++ (+++ is >60%)” and the EC50 is less than 1 µM.
As to `Cc1cccc(C)c1-c1cc2nc(n1)NS(=O)(=O)c1cccc(c1)C(=O)NC[C@@H](c1ccc(C(C)(C)C)cn1)O2` (single isomer, unassigned) [Compound 8, 10-(5-tert-butyl-2-pyridyl)-6-(2,6-dimethylphenyl)-2,2-dioxo-9-oxa-2λ^6-thia-3,5,12,19-tetrazatricyclo[12.3.1.14,8]nonadeca-1(18),4(19),5,7,14,16-hexaen-13-one], the “Ent. A Max Activity” value (Table 8) is given as “+ (+ is <30%)”.
In the case of `Cc1cccc(C)c1-c1cc2nc(n1)NS(=O)(=O)c1cccc(c1)C(=O)N[C@@H]1CN(C(C)C)CC[C@H]1O2` [Compound 373], where the note is “Table 9”, the “Ent. A Max Activity” value was “+++ (+++ is >60%)” and the EC50 lay within 1 to 3 µM.
As for `Cc1cccc(C)c1-c1cc2nc(n1)NS(=O)(=O)c1cccc(c1)C(=O)NC1(CCN(CCC(C)(C)C)CC1)CO2` [Compound 86, 1′-(3,3-Dimethylbutyl)-6-(2,6-dimethylphenyl)-2,2-dioxo-spiro[9-oxa-2λ^6-thia-3,5,12,19-tetrazatricyclo[12.3.1.14,8]nonadeca-1(18),4(19),5,7,14,16-hexaene-11,4′-piperidine]-13-one], where the note is “Table 9”, the “Ent. A Max Activity” value is on record as “+++ (+++ is >60%)” and the EC50 lay within 1 to 3 µM.
The like results for `Cc1cccc(C)c1-c1cc2nc(n1)NS(=O)(=O)c1cccc(c1)C(=O)N[C@@H]1CCN(C(=O)OC(C)(C)C)C[C@H]1O2` (single isomer, unassigned) [Compound 87, tert-butyl 20-(2,6-dimethylphenyl)-10,16,16-trioxo-2-oxa-16λ^6-thia-5,9,17,19,22-pentaazatetracyclo[16.3.1.111,15.03,8]tricosa-1(21),11(23),12,14,18(22),19-hexaene-5-carboxylate] were, in that order, “+++ (+++ is >60%)” and 1 to 3 µM.
For the compound `Cc1cccc(C)c1-c1cc2nc(n1)NS(=O)(=O)c1cccc(c1)C(=O)NC[C@H](c1ccc(C(F)(F)F)cc1)O2` (stereo in doubt) [Compound 402], where the note is “Table 8”, the “Ent. A Max Activity” value is listed as “+ (+ is <30%)” and the EC50 was in the range of 3 to 30 µM.
As for `Cc1cccc(C)c1-c1cc2nc(n1)NS(=O)(=O)c1cc(cc(C3CCCCC3)c1)C(=O)N[C@H](CC(C)C)CO2` [Compound 137], the “Ent. A Max Activity” value (Table 8) is “+ (+ is <30%)”.
Same read-out and setting: in the case of `Cc1cccc(C)c1-c1cc2nc(n1)NS(=O)(=O)c1cccc(c1)C(=O)NC[C@@H](CC(C)C)O2` [Compound 254] it was “+ (+ is <30%)”.
For `Cc1cccc(C)c1-c1cc2nc(n1)NS(=O)(=O)c1cccc(c1)C(=O)NCC1(CCN(C(=O)c3c(C)c4ccccc4n3C)CC1)CO2` [Compound 455], for the setting “Enteroid Assay A”, the “Ent. A Max Activity” value is listed as “++ (++ is 30-60%)” and the EC50 is 1 to 3 µM.
The corresponding values for `Cc1cccc(C)c1-c1cc2nc(n1)NS(=O)(=O)c1cccc(c1)C(=O)NCC1(CCN(C(=O)c3cc4ccc(OC(F)(F)F)cc4[nH]3)CC1)CO2` [Compound 84, 6-(2,6-Dimethylphenyl)-2,2-dioxo-1′-[6-(trifluoromethoxy)-1H-indole-2-carbonyl]spiro[9-oxa-2λ^6-thia-3,5,13,20-tetrazatricyclo[13.3.1.14,8]icosa-1(19),4(20),5,7,15,17-hexaene-11,4′-piperidine]-14-one] are “++ (++ is 30-60%)” and less than 1 µM.
For `Cc1cccc(C)c1-c1cc2nc(n1)NS(=O)(=O)c1cccc(c1)C(=O)NC1CC(CN(CCC(C)(C)C3CC3)C1)O2` (stereo not shown) [Compound 195], under “Enteroid Assay A”, the EC50 was less than 1 µM.
